Assay results: US20200261584A1, “STABILIZED PROTEIN GEL PREPARATION” (TERUMO KABUSHIKI KAISHA, priority 2013, published 2020)

Assay: Oxidative stress, Example 29 (α-hANP, hydrogen peroxide, HPLC)
Assay type: physicochemical
Conditions: 0.1 mg/mL, solution E pH 4.8, 0.2% hydrogen peroxide, 37° C., one hour
Procedure: A gel preparation 29-48 of formulation 48 containing 0.1 mg/mL of α-hANP was prepared in an amount of 500 μL in a microtube, in the same manner as in the preparing method in (1) of Example 2, while using a solution E (pH 4.8) containing 37.5 mg/mL of D-mannitol and 5 mg/mL of glycine, in place of the solution A. Then, 50 μL of 0.2% hydrogen peroxide was added to the gel preparation, followed by incubation at 37° C. for one hour. Immediately after the incubation, 200 μL of 0.4 M methionine and 250 μL of water were added to the sample, and the gel preparation was disintegrated by a microspatula. The sample was then centrifuged, the supernatant was filtered through a membrane filter to remove aggregates, and the amount of α-hANP contained in the solution was determined by the HPLC method. Note that this experiment was conducted with N=2, and the remaining rate of α-hANP was expressed based on the starting amount. Besides, as a control, an α-hANP solution prepared by dissolving α-hANP in the solution E so as to obtain a concentration of 0.1 mg/mL was subjected to the same process as above, exclusive of the disintegrating operation by the microspatula.

CC[C@H](C)[C@@H]1NC(=O)[C@H](CCCNC(=N)N)NC(=O)[C@H](CC(=O)O)NC(=O)[C@H](CCSC)NC(=O)[C@H](CCCNC(=N)N)NC(=O)CNC(=O)CNC(=O)[C@H](Cc2ccccc2)NC(=O)[C@@H](NC(=O)[C@H](CO)NC(=O)[C@H](CO)NC(=O)[C@H](CCCNC(=N)N)NC(=O)[C@H](CCCNC(=N)N)NC(=O)[C@H](CC(C)C)NC(=O)[C@@H](N)CO)CSSC[C@@H](C(=O)N[C@@H](CC(N)=O)C(=O)N[C@@H](CO)C(=O)N[C@@H](Cc2ccccc2)C(=O)N[C@@H](CCCNC(=N)N)C(=O)N[C@@H](Cc2ccc(O)cc2)C(=O)O)NC(=O)CNC(=O)[C@H](CC(C)C)NC(=O)CNC(=O)[C@H](CO)NC(=O)[C@H](CCC(N)=O)NC(=O)[C@H](C)NC(=O)CNC1=O [α-hANP solution, α-human atrial natriuretic polypeptide]
Remaining rate of α-hANP after loaded with oxidative stress, run 1: 65.4% | Remaining rate of α-hANP after loaded with oxidative stress, run 2: 64.7%
